The values below come from publication PMC11040670, “Mechanistic and Kinetic Insights into Cellular Uptake of Biomimetic Dinitrosyl Iron Complexes and Intracellular Delivery of NO for Activation of Cytoprotective HO-1” (JACS Au, 2024).

Series [1] deals with HCEC. Kind of series: Whole-cell EPR: cellular uptake and intracellular formation/decomposition of mononuclear DNIC in HCEC. The series is classed as cell-based, human. To be noted: for tmax for cellular uptake and intracellular transformation (whole-cell EPR): normoxia, 75 μM DNIC–COOH or 1 μM DNIC–COOMe. Here is the method:
Cellular uptake of DNIC–COOH and intracellular formation/decomposition of mononuclear DNICs in MSC/N2a/HCEC cells were investigated using EPR spectroscopy. Briefly, cells were seeded into two (or one) 100 mm dish(es) at a density of 2 × 10^6 cells/dish and incubated at 37 °C overnight. On the next day, cells were treated with 100 μM of DNIC–COOH (or 100 μM of DNIC–COOH to N2a and 75 μM of DNIC–COOH to HCEC) and incubated for 0, 0.5, 1, 2, 3, 4, 8, and 24 h, respectively. After removal of the supernatant solution, cells were washed with DPBS before addition of 1 mL of trypsin (0.05%)/EDTA (0.53 mM) and incubation for 5 min at 37 °C. After the obtained cell suspension solutions from two 100 mm dishes were combined and centrifuged at 100g for 5 min, the supernatant was removed before addition of 100 μL of αMEM to DNIC-treated MSC (or MEM to DNIC-treated N2a and HSFM to DNIC-treated HCEC). This solution was then transferred into EPR quartz tube and frozen in N2(l) before the EPR measurements. For each measured EPR spectrum, double integration was executed to obtain the integrated EPR intensity under each condition. Moreover, time-dependent decay of integrated EPR signal intensity after treatment of DNIC–COOH was fit to pseudo-first-order kinetics in order to determine the intracellular half-life for EPR-active mononuclear DNIC. Three independent experiments were executed to measure the average half-life for intracellular decomposition of EPR-active mononuclear DNIC after treatment with DNIC–COOH at 37 °C. On the other hand, at the time point with maximum integrated EPR signal intensity, spin quantitation of intracellular EPR-active DNICs was performed using mononuclear DNIC [PPN][(NO)2Fe(S5)] as a standard according to the methodology used in the previous work.[50] Cellular uptake of DNIC–COOMe (2.5 μM to MSC, 10 μM to N2a, or 1 μM to HCEC) and intracellular formation/decomposition of EPR-active mononuclear DNICs were investigated using EPR spectroscopy in a similar manner.
Studies of cellular uptake mechanisms were investigated using EPR spectroscopy in combination with pretreatments of alternative inhibitors. After the MSC cells were seeded into two (or one) 100 mm dish(es) at a density of 2 × 10^6 cells/dish and incubated at 37 °C overnight, sequential treatments of 50 μM of NEM for 0.5 h and 100 μM of DNIC–COOH for 2 h were performed before the treated MSC cells were collected for EPR measurement following the procedure described above. […]

The subject of series [2] is HCEC. Kind of series: Intracellular release of NO (DAF-FM fluorescence) in HCEC. To be noted: 75 μM DNIC–COOH or 1 μM DNIC–COOMe. The series is classed as cell-based, human. Here is the method: Intracellular release of NO by DNIC–COOH was validated using the fluorescence probe 4-amino-5-methylamino-2′,7′-difluorofluorescein diacetate (DAF-FM) in combination with fluorescence analysis techniques. Briefly, the MSC cells (or N2a and HCEC cells) were seeded onto a 96-well black plate at a density of 6 × 10^3 cells/well (or 1 × 10^4 cells/well for N2a and 8 × 10^3 cells/well for HCEC cells) and incubated at 37 °C overnight. On the next day, the MSC cells were first treated with 10 μM of DAF-FM (or 5 μM for N2a and HCEC cells) and incubated at 37 °C for 0.5 h. […] Fluorescence intensity of the cells was then recorded using a microplate reader (SpectraMax iD3, Molecular Devices, San Jose, CA) with an excitation wavelength at 485 nm and an emission wavelength at 525 nm. Three independent experiments were executed to measure the time-dependent change of average fluorescence intensity. Time-dependent change of average fluorescence intensity for the MSC/N2a/HCEC cells with sequential treatment of DAF-FM (10 μM for MSC cells, 5 μM for N2a cells, 5 μM for HCEC cells; 0.5 h) and DNIC–COOMe (2.5 μM for MSC cells, 10 μM for N2a cells, 1 μM for HCEC cells) was determined in a similar manner. […]

For the compound `O=[N][Fe]1([N]=O)[SH](CCC(=O)O)[Fe]([N]=O)([N]=O)[SH]1CCC(=O)O` (centres unmarked) [DNIC–COOH, [(NO)2Fe(μ-SCH2CH2COOH)2Fe(NO)2]], the “tmax for cellular uptake and intracellular transformation (whole-cell EPR)” value in the series with HCEC [1] (HCEC) came to 8 h. Also, the figures for the “relative whole-cell EPR signal intensity at gav = 2.03 (control = 100%)” value in the series on HCEC [1] (MβCD-treated HCEC) and in the series on HCEC [1] (genistein-treated HCEC) were 77.5 ± 11.1% and 72.1 ± 5.9%, respectively. Further, in the series with HCEC [2], the “tmax for intracellular release of NO” value stood at 6 h.
On to `COC(=O)CC[SH]1[Fe]([N]=O)([N]=O)[SH](CCC(=O)OC)[Fe]1([N]=O)[N]=O` (centres unmarked) [DNIC–COOMe, [(NO)2Fe(μ-SCH2CH2COOCH3)2Fe(NO)2]], for which the “relative whole-cell EPR signal intensity at gav = 2.03 (control = 100%)” value in the series on HCEC [1] (HCEC, native FBS replaced with 2% NEM-treated FBS) came to 99.9 ± 15.3%; with HCEC [1] (HCEC, pretreatment of NEM 0.5 h, then DNIC–COOMe 0.5 h, reduction) it was 35.8 ± 2.3%. Further, in the series with HCEC [1] (HCEC), the “tmax for cellular uptake and intracellular transformation (whole-cell EPR)” value worked out at 0.5 h. Further, the “tmax for intracellular release of NO” value in the series with HCEC [2] worked out at 1 h.
